Usually IC50 stands for the concentration needed to halve the response being measured.

These results are taken from patent US8835426B2, “Cyclic urea and carbamate inhibitors of 11β-hydroxysteroid dehydrogenase 1” (Vitae Pharmaceuticals, Inc., priority 2007, dated 2014).

Assay [1] concerns the target T1, purified 11β-HSD1 (recombinant, expressed in E. coli) (Homo sapiens, UniProt P28845).
T1 construct: made in house; host or cells: E. coli
The assay is described as follows: Inhibition of purified 11β-HSD1, Scintillation Proximity Assay. The class given is biochemical. As to conditions: recombinant enzyme, 3H cortisone, NADPH, room temperature. The procedure:
(§1) The inhibition of purified 11β-HSD1 by compounds of Formula I was measured as follows using a Scintillation Proximity Assay. All reactions were carried out at room temperature in 96 well flexible Microbeta reaction plates. The assay begins by adding 1 microliter of a 0.1 mM solution of a compound of Formula I in DMSO previously diluted in half-log increments (8 points) starting at 1 micromolar final concentration. To this dot was added 50 microliters of substrate solution (50 mM HEPES, pH 7.4, 100 mM KCl, 5 mM NaCl, 2 mM MgCl2 containing […] of ^3H cortisone, 1 mM NADPH). After a 10 minute incubation, 50 microliters of enzyme solution containing 20 nM recombinant 11β-HSD1 (expressed in E. coli, and affinity purified) was added, The reaction was incubated for 90 minutes, and stopped by adding 50 microliters of SPA bead mix (18-β-glycyrrhetinic acid, 10 micromolar final, 5 mg/ml protein A coated YSi SPA beads, and 1-microgram/ml alpha-cortisol antibody (East Coast Biologics). The plate shaken for 120 minutes, and the radioactivity corresponding to ^3H cortisol was measured on a Wallac Microbeta.
(In a scintillation proximity assay essentially only radioactivity close to the scintillant gives light.)

Assay [2] concerns the target T2, 11β-HSD1 in whole cells (omental adipocytes) (Homo sapiens, UniProt P28845).
T2 construct: host or cells: omental adipocytes differentiated from preadipocytes
As to the kind of experiment: Inhibition of 11β-HSD1 in whole cells (omental adipocytes), cortisone to cortisol conversion, SPA. The note with it: 100 nM [3H] cortisone, 37 degrees C. The class given is cell-based. As for the experimental part: The inhibition of 11β-HSD1 by compounds of Formula I in whole cells was measured as follows. Omental adipocytes cultured in 96-well plates were purchased from Zen-Bio, Inc. and used at least two weeks after differentiation from precursor preadipocytes started in medium supplemented with adipogenic and lipogenic hormones (human insulin, dexamethasone, isobutylmethylxanthine and PPAR-gamma agonist). The cells were maintained in full adipocyte medium (DMEM/Ham's F-12 (1:1, v/v), HEPES pH 7.4, fetal bovine serum, penicillin, streptomycin and Amphotericin B, supplied by Zen-Bio, Inc.) at 37 degrees C., 5% CO2 and transferred into serum-free, phenol red free medium for overnight incubation. The assay was performed in a total volume of 200 microliters. The cells were pre-incubated with serum-free, phenol red free medium containing 0.1% (v/v) of DMSO and various concentrations of compounds of Formula I at least 1 h before [^3H] cortisone in ethanol (50 Ci/mmol, ARC, Inc.) was added to achieve final concentration of cortisone of 100 nM. The cells were incubated for 3-4 at 37 degrees Centigrade, 5% CO2. Negative controls were incubated without radioactive substrate and received the same amount of [^3H] cortisone at the end of the incubation. Formation of [^3H] cortisol was monitored by analyzing 25 microliters of each supernatant in scintillation proximity assay (SPA). (Solly, K.; Mundt, S. S.; Zokian, H. J.; Ding, G. J.; Hermanowski-Vosatka, A.; Strulovici, B.; Zheng, W. Assay Drug Dev. Technol. 2005, 3, 377-384),

For assay [3], the target named is microsomal 11β-HSD1 (Homo sapiens, UniProt P28845). As to the kind of experiment: Inhibition of microsomal 11β-HSD1, Scintillation Proximity Assay. The class given is biochemical. As to conditions: microsomal enzyme, same manner as purified enzyme assay. As for the experimental part:
as §1
The inhibition of microsomal 11β-HSD1 was carried out in the same manner.

microsomal 11β-HSD1, sequence (P28845 whole entry): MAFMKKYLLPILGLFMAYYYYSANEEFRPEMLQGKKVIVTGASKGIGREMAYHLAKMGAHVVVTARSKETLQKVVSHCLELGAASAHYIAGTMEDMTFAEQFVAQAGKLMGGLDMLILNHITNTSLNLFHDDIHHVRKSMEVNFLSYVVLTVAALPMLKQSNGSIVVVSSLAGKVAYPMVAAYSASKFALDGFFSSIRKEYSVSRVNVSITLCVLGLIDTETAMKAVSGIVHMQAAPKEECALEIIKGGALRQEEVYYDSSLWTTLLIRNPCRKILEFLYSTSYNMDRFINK
T2 sequence (P28845 whole entry): as above
T1 sequence (P28845 whole entry): as above

Turning to `CC(C)(C)[C@H]1CN(C2C3CC4CC(C3)CC2C4)C(=O)O1` (stereo partly drawn) [Example 12, (S)-3-(2-adamantyl)-5-tert-butyloxazolidin-2-one], the half-maximal inhibitory concentration (IC50) in assay [1], in assay [2] and in assay [3] was less than 50 nM in each case.
With `O=C1N[C@@H](c2ccccc2)CN1C12CC3CC(CC(C3)C1)C2` [Example 30, (S)-1-(1-adamantyl)-4-phenylimidazolidin-2-one], the IC50 in assay [2] was 50 to 1000 nM; in assay [3], less than 50 nM.
As for `CN1C(=O)N(C2C3CC4CC(C3)CC2C4)C[C@@H]1C(C)(C)C` (stereo partly drawn) [Example 28, (S)-1-(2-adamantyl)-4-tert-butyl-3-methylimidazolidin-2-one], the IC50 in assay [1], in assay [2] and in assay [3] was less than 50 nM in each case.
Turning to `CC(C)(C)C1CCN(C2C3CC4CC(C3)CC2C4)C(=O)N1` (racemic) [Example 31, (±)-4-tert-butyl-1-(2-adamantyl)tetrahydropyrimidin-2(1H)-one], the IC50 in assay [2] and in assay [3] was less than 50 nM each time.
